{"source": "ChEMBL document CHEMBL4765314", "about": "“Rational design and biological evaluation of gemfibrozil modified Xenopus GLP-1 derivatives as long-acting hypoglycemic agents” (Eur J Med Chem, 2020)", "key": {"[1]": {"molecular_target": "Glucagon-like peptide 1 receptor (Homo sapiens, UniProt P43220)", "sequence (P43220 whole entry)": "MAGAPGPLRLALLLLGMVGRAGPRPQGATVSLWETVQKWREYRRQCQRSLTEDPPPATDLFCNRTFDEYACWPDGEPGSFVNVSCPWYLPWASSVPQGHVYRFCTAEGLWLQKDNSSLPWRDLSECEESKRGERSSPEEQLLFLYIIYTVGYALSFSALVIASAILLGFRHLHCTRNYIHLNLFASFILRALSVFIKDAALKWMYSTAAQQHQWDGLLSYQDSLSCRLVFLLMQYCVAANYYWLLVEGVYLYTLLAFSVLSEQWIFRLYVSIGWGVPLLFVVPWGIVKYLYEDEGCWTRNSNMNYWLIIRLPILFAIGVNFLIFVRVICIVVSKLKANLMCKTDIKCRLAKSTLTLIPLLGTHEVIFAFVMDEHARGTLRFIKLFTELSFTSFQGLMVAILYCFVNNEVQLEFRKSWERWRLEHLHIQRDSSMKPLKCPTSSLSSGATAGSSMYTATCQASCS", "assay": "Agonist activity at human GLP-1R expressed in HEK293 cells assessed as stimulation of cAMP accumulation incubated for 60 mins by HTRF assay", "assay_type": "functional, cell-based"}, "Mus musculus [2]": {"system": "Mus musculus", "assay": "Hypoglycemic activity in 12 hrs fasted ICR mouse assessed as reduction in blood glucose level at 25 nmol/kg, ip dosed 30 mins before glucose challenge measured up to 120 mins by OGTT method", "assay_type": "functional, organism-based", "settings": "time 150.0 min"}, "[3]": {"assay": "Stability in Sprague-Dawley rat plasma assessed as half life at 1000 ng/ml measured up to 48 hrs under shaking condition by LC-MS/MS analysis", "assay_type": "ADME, cell-free"}, "Albumin": {"molecular_target": "Albumin (Homo sapiens, UniProt P02768)", "sequence (P02768 whole entry)": "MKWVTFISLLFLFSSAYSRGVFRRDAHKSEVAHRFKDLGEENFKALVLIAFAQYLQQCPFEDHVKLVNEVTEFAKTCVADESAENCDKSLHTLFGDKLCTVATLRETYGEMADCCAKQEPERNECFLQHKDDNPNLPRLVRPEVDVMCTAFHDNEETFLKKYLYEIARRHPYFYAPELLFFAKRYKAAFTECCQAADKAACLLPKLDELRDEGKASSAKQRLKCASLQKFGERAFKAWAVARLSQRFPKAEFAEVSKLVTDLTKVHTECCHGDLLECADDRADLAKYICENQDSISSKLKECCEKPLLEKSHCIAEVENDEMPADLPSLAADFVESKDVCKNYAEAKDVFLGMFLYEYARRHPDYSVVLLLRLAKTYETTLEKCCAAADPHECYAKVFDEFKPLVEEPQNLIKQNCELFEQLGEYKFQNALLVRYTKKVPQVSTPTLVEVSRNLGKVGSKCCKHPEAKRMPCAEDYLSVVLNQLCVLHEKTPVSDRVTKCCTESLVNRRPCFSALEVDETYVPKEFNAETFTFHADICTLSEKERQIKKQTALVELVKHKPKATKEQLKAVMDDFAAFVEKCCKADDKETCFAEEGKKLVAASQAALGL", "assay": "Binding affinity to human serum albumin assessed as retention factor by HPAC method", "assay_type": "ADME"}, "Mus musculus [4]": {"system": "Mus musculus", "assay": "Hypoglycemic activity in non-fasted db/db […] mouse assessed as reduction in blood glucose level at 25 nmol/kg, ip dosed 30 mins before glucose challenge measured up to 120 mins by OGTT method", "assay_type": "functional, organism-based"}, "[5]": {"assay": "Hepatotoxicity in ICR mouse assessed as effect on aspartate aminotransferase level at 100 nmol/kg, sc administered once daily for 2 weeks", "assay_type": "toxicity, organism-based", "settings": "in vivo, 336 h"}, "[6]": {"assay": "Hepatotoxicity in ICR mouse assessed as effect on alanine aminotransferase level at 100 nmol/kg, sc administered once daily for 2 weeks", "assay_type": "toxicity, organism-based", "settings": "in vivo, 336 h"}, "[7]": {"assay": "Renal toxicity in ICR mouse assessed as effect on blood urea nitrogen level at 100 nmol/kg, sc administered once daily for 2 weeks", "assay_type": "organism-based", "settings": "in vivo, 336 h"}, "[8]": {"assay": "Renal toxicity in ICR mouse assessed as effect on serum creatinine level at 100 nmol/kg, sc administered once daily for 2 weeks", "assay_type": "organism-based", "settings": "in vivo, 336 h"}, "Mus musculus [9]": {"system": "Mus musculus", "assay": "Hypoglycemic activity in 16 hrs fasted db/db mouse assessed as reduction in blood glucose level at 25 nmol/kg, ip treated 30 mins before glucose challenge and measured at 0 to 24 hrs by multiple OGTT", "assay_type": "functional, organism-based", "settings": "time 1470.0 min"}, "Mus musculus [10]": {"system": "Mus musculus", "assay": "Inhibition of solid-phase gastric emptying in 12 hrs fasted ICR mouse assessed reduction in gastric emptying rate at 25 nmol/kg, ip allowed for food intake 1 hrs and measured after 4 hrs […]", "assay_type": "functional", "parameters": "scale not given: the % may be the effect or the level left"}, "Mus musculus [11]": {"system": "Mus musculus", "assay": "Reduction in body weight in C57BL/6 mouse model of diet induced obesity at 25 nmol/kg, sc administered every two days for 21 days relative to control", "assay_type": "functional, organism-based", "parameters": "scale not given: the % may be the effect or the level left", "settings": "time 21.0 day"}, "Mus musculus [12]": {"system": "Mus musculus", "assay": "Reduction in body fat content in C57BL/6 mouse model of high-fat diet induced obesity at 25 nmol/kg, sc administered every two days for 21 days relative to control", "assay_type": "functional, organism-based", "parameters": "scale not given: the % may be the effect or the level left", "settings": "time 21.0 day"}, "Mus musculus [13]": {"system": "Mus musculus", "assay": "Reduction in serum triglyceride in C57BL/6 mouse model of high-fat diet induced obesity at 25 nmol/kg, sc administered every two days for 21 days", "assay_type": "functional, organism-based", "settings": "time 21.0 day"}, "Mus musculus [14]": {"system": "Mus musculus", "assay": "Reduction in serum total cholesterol in C57BL/6 mouse model of high-fat diet induced obesity at 25 nmol/kg, sc administered every two days for 21 days", "assay_type": "functional, organism-based", "settings": "time 21.0 day"}, "Mus musculus [15]": {"system": "Mus musculus", "assay": "Increase in serum HDL level in C57BL/6 mouse model of high-fat diet induced obesity at 25 nmol/kg, sc administered every two days for 21 days", "assay_type": "functional, organism-based", "settings": "time 21.0 day"}, "Mus musculus [16]": {"system": "Mus musculus", "assay": "Reduction in serum LDL level in C57BL/6 mouse model of high-fat diet induced obesity at 25 nmol/kg, sc administered every two days for 21 days", "assay_type": "functional, organism-based", "settings": "time 21.0 day"}, "Mus musculus [17]": {"system": "Mus musculus", "assay": "Effect in normal chow diet fed C57BL/6 mouse assessed as reduction in body weight increase at 25 nmol/kg, sc administered every two days for 21 days (reference value: 10.8%)", "assay_type": "functional, organism-based", "parameters": "scale not given: the % may be the effect or the level left", "settings": "time 21.0 day"}, "Mus musculus [18]": {"system": "Mus musculus", "assay": "Anorectic effect in normal chow diet fed C57BL/6 mouse assessed as reduction in food intake at 25 nmol/kg, sc administered every two for 21 days", "assay_type": "functional, organism-based", "settings": "time 21.0 day"}, "Mus musculus [19]": {"system": "Mus musculus", "assay": "Inhibition of fat mass gain in normal chow diet fed C57BL/6 mouse at 25 nmol/kg, sc administered every two days for 21 days", "assay_type": "functional, organism-based", "settings": "time 21.0 day"}, "Mus musculus [20]": {"system": "Mus musculus", "assay": "Hypoglycemic activity in normal chow diet fed C57BL/6 mouse assessed as fasting blood glucose at 25 nmol/kg, sc administered every two for 21 days", "assay_type": "functional, organism-based", "settings": "time 21.0 day"}, "Mus musculus [21]": {"system": "Mus musculus", "assay": "Improvement in glucose tolerance in standard chow diet fed C57BL/6 mouse at 25 nmol/kg, sc administered every 2 days for 21 days", "assay_type": "functional, organism-based", "settings": "time 21.0 day"}, "Mus musculus [22]": {"system": "Mus musculus", "assay": "Improvement in glucose tolerance in db/db mouse at 25 nmol/kg, sc administered every 2 days for 42 days by OGTT", "assay_type": "functional, organism-based", "settings": "time 42.0 day"}, "Mus musculus [23]": {"system": "Mus musculus", "assay": "Reduction in HbA1c level in db/db mouse at 25 nmol/kg, sc administered every two days for 42 days by OGTT", "assay_type": "functional, organism-based", "settings": "time 42.0 day"}, "Mus musculus [24]": {"system": "Mus musculus", "assay": "Improvement in glucose tolerance in db/db mouse assessed as time for superior hypoglycemic effect by measuring glucose AUC at 25 nmol/kg, sc administered twice daily for 42 days by OGTT", "assay_type": "functional, organism-based", "settings": "time 42.0 day"}}, "note": "Calls of active or inactive are those of the source. No cut-off for these calls is given here. Starred links: 1 amine or outer side, 2 acyl side, 3 side chain; linkers in the order of their positions; H or OH if unused. Non-standard residues stand in square brackets, D forms with d. Groups on a side chain read outwards from the residue. ξ: configuration not given here. *: point of attachment. X1 = Cc1ccc(C)c(OCCCC(C)(C)C(=O)OCC(=O)NCCCCCCCCCC(NC(=O)COC(=O)C(C)(C)CCCOc2cc(C)ccc2C)C(=O)*)c1; X2 = Cc1ccc(C)c(OCCCC(C)(C)C(=O)OCC(=O)NCCCCC(NC(=O)COC(=O)C(C)(C)CCCOc2cc(C)ccc2C)C(=O)*)c1; Glycoloyl(O-gemfibrozoyl) = Cc1ccc(C)c(OCCCC(C)(C)C(=O)OCC(=O)*)c1; γGlu = O=C(O)[C@H](CCC(=O)[*:2])N[*:1]; ξK = NCCCCC(N)C(=O)O; Ahx = NCCCCCC(=O)O", "data": [{"substance": "H-HGEGTYTNDVTEYLEEEAAK([γGlu-X1])EFIEWLIKGKPSSGAPPSKKKKKK-OH", "values": [{"measurement": "EC50", "setting": "[1]", "value": 0.31, "unit": "nM"}, {"measurement": "Activity", "setting": "Mus musculus [2]", "value": "inactive"}, {"measurement": "half-life at 1000 ng/ml", "setting": "[3]", "value": 33.9, "unit": "h"}, {"measurement": "K", "setting": "Albumin", "value": 12.1}]}, {"substance": "H-HGEGTYTNDVTEYLEEEAA[ξK]([γGlu-Ahx-Glycoloyl(O-gemfibrozoyl)])EFIEWLIKGKPSSGAPPSKKKKKK-OH", "values": [{"measurement": "EC50", "setting": "[1]", "value": 0.053, "unit": "nM"}, {"measurement": "Activity", "setting": "Mus musculus [2]", "value": "Active"}, {"measurement": "half-life at 1000 ng/ml", "setting": "[3]", "value": 16.3, "unit": "h"}, {"measurement": "K", "setting": "Albumin", "value": 6.4}]}, {"substance": "H-HGEGTYTNDVTEYLEEEAA[ξK]([γGlu-X2])EFIEWLIKGKPSSGAPPSKKKKKK-OH", "values": [{"measurement": "EC50", "setting": "[1]", "value": 0.091, "unit": "nM"}, {"measurement": "Activity", "setting": "Mus musculus [2]", "value": "Active"}, {"measurement": "half-life at 1000 ng/ml", "setting": "[3]", "value": 29.5, "unit": "h"}, {"measurement": "K", "setting": "Albumin", "value": 11.2}, {"measurement": "Activity", "setting": "Mus musculus [4]", "value": "Active"}]}, {"substance": "SEMAGLUTIDE [listing 1 of 2 here]", "values": [{"measurement": "Activity", "setting": "[5]", "value": "Non-Toxic"}, {"measurement": "Activity", "setting": "[6]", "value": "Non-Toxic"}, {"measurement": "Activity", "setting": "[7]", "value": "Non-Toxic"}, {"measurement": "Activity", "setting": "[8]", "value": "Non-Toxic"}]}, {"substance": "SEMAGLUTIDE [listing 2 of 2 here]", "values": [{"measurement": "Activity", "setting": "Mus musculus [9]", "value": "Active"}, {"measurement": "Activity", "setting": "Mus musculus [10]", "value": 52, "unit": "%"}, {"measurement": "Activity", "setting": "Mus musculus [11]", "value": 13.4, "unit": "%"}, {"measurement": "Activity", "setting": "Mus musculus [12]", "value": 25.5, "unit": "%"}, {"measurement": "Activity", "setting": "Mus musculus [13]", "value": "Active"}, {"measurement": "Activity", "setting": "Mus musculus [14]", "value": "Active"}, {"measurement": "Activity", "setting": "Mus musculus [15]", "value": "inactive"}, {"measurement": "Activity", "setting": "Mus musculus [16]", "value": "Active"}, {"measurement": "Activity", "setting": "Mus musculus [17]", "value": 6.7, "unit": "%"}, {"measurement": "Activity", "setting": "Mus musculus [18]", "value": "Active"}, {"measurement": "Activity", "setting": "Mus musculus [19]", "value": "Active"}, {"measurement": "Activity", "setting": "Mus musculus [20]", "value": "inactive"}, {"measurement": "Activity", "setting": "Mus musculus [21]", "value": "inactive"}, {"measurement": "Activity", "setting": "Mus musculus [22]", "value": "Active"}, {"measurement": "Activity", "setting": "Mus musculus [23]", "value": "Active"}, {"measurement": "TIME", "setting": "Mus musculus [24]", "value": 1680, "unit": "h"}]}]}
